Non-standard residues stand in square brackets, D forms with d. Residues, ends and D or L forms follow the SMILES beside them. Nle = CCCC[C@H](N)C(=O)O
Columns and labels:
Type in all cases: cell-based, rat
[1] = tested on: CREB reporter mRNA translation in DRG axons; test: myr-dEGFP3′CREB Sindbis translation reporter in axons; settings: 40 μM LLnL, within 5 min, myr-dEGFP3′CREB-infected axons
Text: FIGS. 5A-C are results showing NGF-dependent translation of a CREB reporter mRNA in axons. (A) Schematic diagram of the Sindbis viral reporter construct used to monitor CREB translation. The reporter contains a myristoylated, destabilized EGFP (myr-dEGFP) with the 3′UTR of CREB, expressed under control of the Sindbis subgenomic promoter (PSG). (B) E15 DRG explant cultures were infected with Sindbis constructs expressing myr-dEGFP3′CREB on DIV3 and fluorescence (bottom panel) and phase (top panel) images, approximately 1000 μm from the cell body were collected after 24 hours. Fluorescence images are shown in inverted contrast in order to more readily visualize puncta. Scale bar, 25 μm. […] EGFP fluorescence co-localizes with a population of S6-labeled ribosomal clusters. […]
FIGS. 6A-H are data showing that axonal CREB is specifically translated in response to NGF. […] (B) E15 DRG explant cultures were infected with Sindbis constructs expressing myr-dEGFP3′RhoA or myr-dEGFP3′H1f0 on DIV3 and fluorescence images were collected after 24 h. […] (D) Axons from DIV3 DRGs were analyzed for CREB and mitochondrial localizations by immunofluorescence using CREB-specific and VDAC/porin1-specific antibodies. […] CREB mRNA was detected by FISH using a CREB specific riboprobe. […] (H) Axons of DIV3 DRG explant cultures were analyzed by immunofluorescence for NGF effectors CREB, pTrkA and pErk5 at 3 DIV. […]

CREB = CREB levels in severed axons by immunofluorescence; settings: severed axons, inhibitor present during NGF removal
Description: FIGS. 7A-B are results showing the axonal translation and retrograde transport of endogenous CREB. (A) CREB levels in severed axons of E15 DRGs were assayed by immunofluorescence with a CREB-specific antibody. CREB was depleted on removal of NGF, with near complete loss of fluorescence signals by 3 hours. […] The error bars represent s.e.m. (n=40). (B) CREB is depleted from axon terminals in a microtubule-dependent manner. CREB levels in severed axons were monitored, as in A, after removal and restoration of NGF, in the presence of LLnL or colchicine. Colchicine, but not LLnL, blocked the reduction in CREB levels following removal of NGF. The error bars represent s.e.m. (n=40).
E15 rat or E13 mouse embryonic dorsal root ganglion (DRG) explants were plated on glass-bottom culture dishes (MatTek) or glass coverslips pre-coated with 33 μg/ml poly-D-lysine and 1 μg/ml laminin. CREB^α/Δ−/+ animals used to generate CREB^α/Δ−/− embryos were from Jackson Labs. E15 dissociated DRG neurons were prepared as described by Wu et al., Nature 436, 1020-1024 (2005). DRGs were cultured in B27/Neurobasal medium (Invitrogen) supplemented with 100 ng/ml nerve growth factor (NGF) and […] 5′-fluorodeoxyuridine (5-FdU) for 3 days. siRNA-mediated knockdown in DRG neurons has been described previously by Higuchi et al., Biochemical & Biophysical Research Communications 301, 804-809 (2003) and was performed using siRNAs listed in Table S3. For measurements of CREB levels in isolated axons, axons were severed from cell bodies by removing the explant with a flame-sharpened Pasteur pipette (Wu et al., Nature 436, 1020-1024 (2005)). Modified Boyden chambers were based on the procedure of Twiss (Zheng et al., Journal of Neuroscience 21, 9291-9303 (2001)) and modified to obtain distal axons as described by Wu et al., Nature 436, 1020-1024 (2005). mRNA from harvested axons (Wu et al., Nature 436, 1020-1024 (2005)) was used to prepare a cDNA library using a modified, unbiased single cell protocol as described below. See also Tietjen et al., Neuron 38, 161-175 (2003). Compartmented (Campenot) cultures were prepared as described below. See also Campenot, Proc Natl Acad Sci USA 74, 4516-4519 (1977)).
Images and measurements of signals in axons were taken from the terminal 50 μm of the axon, except where indicated. Analyzed axons were a minimum of 2000 μm for all experiments. DRGs were fixed with 4% PFA in CBS overnight at 4° C., permeabilized with 0.5% Triton X-100/TBS, and blocked in 4% BSA/TBS for 1 hour. DRGs were labeled with antibodies (Table S4) in 2% BSA/0.1% Triton X-100/TBS overnight at 4° C. For image acquisition details, see below.
The axonal localization of CREB was also examined by immunofluorescence. Axons were severed from cultured DRG explants to rule out potential contributions from anterograde transport of cell body-derived CREB. […] Although the majority of CREB protein localized to the nucleus, with substantially lower levels in axons (FIG. 4D), the immunofluorescence signal in axons was specific. Similar immunofluorescence staining was seen using a different CREB-specific antibody that recognized a non-overlapping epitope.
The importin proteins, which bind nuclear-localization sequences (NLS) (Goldfarb et al., Trends in Cell Biology 14, 505-514 (2004)), are present in axons and mediate the retrograde trafficking of axonally-injected fluorescently-labeled NLS peptides (Hanz et al., Neuron 40, 1095-1104 (2003)). Since CREB contains a NLS that mediates its nuclear localization (Waeber & Habener, Mol Endocrinol 5, 1418-1430 (1991)), axonal CREB may be retrogradely transported to the cell body. To determine if endogenously-expressed CREB is retrogradely trafficked, we examined the time course of CREB reduction in axons upon replacement of media with NGF-free media. […]

E15 DRG explant cultures = test: Retrograde transport of photoactivatable Dendra-CREB reporter; settings: in presence of inhibitor
Description: FIGS. 8A-D are results showing the retrograde transport of a photoactivatable fluorescent CREB reporter protein. (A) E15 DRG explant cultures were infected with Sindbis constructs expressing Dendra or Dendra-CREB transcripts. Dendra and Dendra-CREB were visualized as green fluorescence (top panel), and growth cone-localized Dendra[-CREB] was photoactivated to its red form by 50 ms illumination of the boxed regions with a 408 nm laser. Movement of photoactivated Dendra signals was analyzed within the axon determined by green Dendra fluorescence mask. […] Photoactivated Dendra[-CREB] images are shown inverted in order to more readily visualize signals. Scale bar, 10 μm. (B) Quantification of data in (A). […] The expected diffusion rate of Dendra-CREB was calculated at various elapsed time points, using a previously measured diffusion coefficient (D) in neurons (Bloodgood & Sabatini, Science 310, 866-869 (2005)), in the formula x^2=(2Dt), where x is the average displacement. […] (C) Dendra or Dendra-CREB was photoactivated by 1 s illumination of a 40 μm axon segment approximately 1 mm from its respective cell body and levels of photoactivated Dendra fluorescence were analyzed in the respective cell nucleus. […] (D) Quantification of data in (C). n=10 cells per data point. *p=0.0012. […]

SMILES | eGFP fluorescence signal [1] | reduction of CREB levels upon removal of NGF (CREB) | retrograde transport of Dendra-CREB (E15 DRG explant cultures)
CCCC[C@@H](C=O)NC(=O)[C@H](CC(C)C)NC(=O)[C@H](CC(C)C)NC(C)=O [LLnL] (Ac-Leu-Leu-[Nle]-aldehyde) | increased twofold | unaffected | –
COc1cc2c(c(OC)c1OC)-c1ccc(OC)c(=O)cc1[C@@H](NC(C)=O)CC2 [colchicine] | – | abolished the reduction in CREB levels | significantly blocked
C=C(CC)C(=O)c1ccc(OCC(=O)O)c(Cl)c1Cl [ethacrynic acid] | – | – | significantly blocked
